Source: patent publication US6664231B1, “Anti-fungal peptides” (priority 1993, dated 2003)
Converted amounts (≈) assume the structure as drawn. Square brackets hold non-standard residues; d marks the D form. Peptide text beside a SMILES is read from it. 1Nal = N[C@@H](Cc1cccc2ccccc12)C(=O)O

Columns and labels:
[1] = tested on: Candida albicans SLU-1; experiment: Radial diffusion assay (Example 3), wild type strain; assay type: cell-based; details: FIG. 2A
Method: (§1) For the radial diffusion assays, Candida albicans SLU-1 were grown as described above and SLU-2G were grown overnight in Sabouraud dextrose broth supplemented with 10 μg/mL amphotericin B and 5 μg/mL ceftriaxone at 37° C. Cultures were diluted 1:25 into fresh, unsupplemented broth and allowed to grow for 5 hours at 37° C. Cells were pelleted at 1,500×g for 5 minutes at 4° C. Supernatant was decanted and replaced with 5 mL of 10 mM phosphate buffer, pH 7.4. After centrifugation the cell pellets were resuspended with 5 mL phosphate buffer for an OD570 determination. One OD570 for SLU-1 cells was 3×10^7 CFU/mL and for SLU-2G cells was 5×10^6 CFU/mL.
(§2) Cells were added to 10 mL of molten, cooled (˜45° C.) underlayer agarose to a concentration of 1×10^6/mL and the suspension was poured into a level square petri plate with gentle rocking to allow even distribution and solidification to a uniform thickness of about 1 mm. Wells were cut into the hardened agarose with a sterilize, 3 mm diameter punch with vacuum.
Peptides were two-fold serially diluted with DPBS from a starting concentration of approximately 1 mg/mL. Amphotericin B and nystatin were similarly diluted starting at 100 and 225 μg/mL, respectively. Five μL were added per well and allowed to diffuse at 37° C. for 1.5-2.0 hours. Then 10 mL of molten overlayer agarose were added and the plates were incubated inverted at 37° C. overnight. Plates were stained with a dilute Coomassie solution, inhibition zones were measured with calipers and net areas were calculated, then converted to pmol values by PROBIT analysis. The results of a representative experiment are shown in FIG. 2A for the SLU-1 strain and FIG. 2B for the SLU-2G strain. In FIGS. 2A and 2B, the fungicidal activity is represented for XMP.13 as open circles; for XMP.37 as closed circles; for XMP.97 as open triangles; for XMP.127 as closed triangles; for amphotericin B as open squares; and for nystatin as closed squares. The pmol for a 30 mm^2 zone of inhibition were calculated to be: for XMP.13, 689 pmol against SLU-1 and 129 pmol against SLU-2G; for XMP.37, 231 pmol against SLU-1 and 75 pmol against SLU-2G; for XMP.97, 670 pmol against SLU-1 and 161 pmol against SLU-2G; for XMP.127, 935 pmol against SLU-1 and 116 pmol against SLU-2G; for amphotericin B, 36 pmol against SLU-1 and >541 pmol for SLU-2G; and for nysttin, 98 pmol against SLU-1 and >1,215 pmol against SLU-2G.

[2] = tested on: Candida albicans SLU-2G amphotericin B-resistant strain; experiment: Radial diffusion assay (Example 3), amphotericin B-resistant strain; assay type: cell-based; details: FIG. 2B
Method: Domain III derived peptides were tested for their fungicidal activity on amphotericin resistant Candida. Resistant colonies of Candida were isolated using a gradient plate technique. A slanted Sabouraud dextrose agar plate was poured and allowed to harden. The plate was made level and additional agar supplemented with nystatin (Sigma, St. Louis, Mo., cat. no. N-3503) at a concentration of 10 μg/mL was poured. Cells from the CA-1 colony of Candida albicans SLU-1 strain described in Example 2 (10^7 cells in a volume of 100 μL) were spread over the plate and incubated at […] overnight.
as §1, with “determination.” for “determination. One OD570 for SLU-1 cells was 3×10^7 CFU/mL and for SLU-2G cells was 5×10^6 CFU/mL.”
as §2
Peptides were two-fold serially diluted with DPBS from a starting concentration of approximately 1 mg/mL. […] Five μL were added per well and allowed to diffuse at 37° C. for 1.5-2.0 hours. Then 10 mL of molten overlayer agarose were added and the plates were incubated inverted at 37° C. overnight. Plates were stained with a dilute Coomassie solution, inhibition zones were measured with calipers and net areas were calculated, then converted to pmol values by PROBIT analysis.

[3] = tested on: C. albicans designated CA-1, Strain SLU-1; details: designated CA-1, Strain SLU-1, 18 h
Method: In each broth assay screening procedure, a colony of C. albicans designated CA-1, Strain SLU-1 that was received from the laboratories of G. Matuschak and A. Lechner, St. Louis University Hospital, St. Louis, Mo., where the strain was maintained, was inoculated into a tube containing 5 mL Sabouraud Dextrose broth (2% dextrose, 1% neopeptone) and incubated overnight at 37° C. with shaking. The overnight culture was diluted 1:50 into 5 mL of fresh broth and incubated for 3 hours at 37° C. Organisms were pelleted by centrifugation in a Beckman J-6M centrifuge for 5 minutes at 3000 rpm (1500×g) and the pellets were resuspended in 5 mL phosphate buffered saline (PBS) and the optical density at 570 nm was determined. On the basis of the determination that one OD unit equals 3×10^7 colony forming units/mL, yeast cells were diluted to 2×10^6 cells/mL in Sabouraud Dextrose broth.
Domain III peptides derived from or based on BPI to be screened were originally constituted in Dulbecco's-PBS, were diluted to 100 μg/mL in broth and were serially diluted 2-fold into wells of a 96 well sterile, flat bottom, non-pyrogenic tissue culture plate (Costar, Cambridge, Mass.). All assays were performed in triplicate. 2×10^5 organisms were added at 100 μl per well; final volume was 200 μL/well; the plate was incubated on a shaker at 37° C. for 18 hours; and the optical densities for each well were read at 590 nm. […] The broth assay data may be set out in terms of minimum inhibitory concentration (MIC), i.e. the lowest concentration required to reduce the optical density at 590 nm to below 0.1.

[4] = tested on: C. albicans (CA-1, Strain SLU-1); experiment: Radial diffusion assay; assay type: cell-based, Candida albicans; details: pmoles of peptide added to well to achieve a 30 mm^2 zone, PROBIT analysis, crude or purified (P′) peptide
Method in brief: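 Yeast at 1×10^6 CFU/mL in agarose underlayer (3% Sabouraud, 10 mM sodium phosphate pH 7.4); 2-fold peptide dilutions in D-PBS from ~1 mg/mL loaded into wells, 3 h at 37° C, then nutrient overlayer overnight. Value: pmol/well giving 30 mm^2 net clear zone, by PROBIT regression.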

[5] = tested on: Candida albicans; experiment: Radial diffusion assay, Candida species (Table 2); assay type: cell-based; details: higher effective concentration of agarose than Table 1
[6] = tested on: Candida glabrata; experiment: Radial diffusion assay, Candida species (Table 2); assay type: cell-based
Method: (§3) The anti-fungal activity of Domain III derived peptides was also evaluated in vitro against a variety of fungal species, including Candida glabrata, Candida krusei, Candida lusitaniae, Candida parapsilosis, and Candida tropicalis. For these experiments, one colony of each of the above-listed Candida strains was picked from a Sabouraud's dextrose agar (SDA) plate and inoculated into 5 mL of Sabouraud's dextrose broth (SDB, 2% dextrose and 1% neopeptone) or, for C. krusei, Yeast Malt broth (YM, Becton Dickenson, Cockeysville, Md., cat no. BL 11405) in 12 mL polyproplyene snap-cap tubes. The tube cultures were incubated overnight with shaking at 37° C.
(§4) Cultures were harvested when the OD570 of a 1:10 dilution was greater than or equal to the following values: 0.083 for Candida glabrata, 0.154 for Candida krusei, 0.117 for Candida lusitaniae, 0.076 for Candida parapsilosis, and 0.192 for Candida tropicalis. Cells were centrifuged for 7 minutes in an Eppendorf microfuge at 3,000 rpm (about 1,500 g). The cell pellet was resuspended in 1 mL PBS and approximately 1×10^7 cells in about 0.5 mL were added to 10 mL of cooled underlay agar (3% SBD, 1% agarose, 0.02% Tween 20, 10 mM sodium phosphate buffer, pH 7.4 at about 45° C.). The suspension was poured into square petri plates, allowed to solidify, and wells cut as described above.
(§5) Peptides were two-fold serially diluted with D-PBS from about 20 μL of a starting concentration of approximately 1 mg/mL. Five μL of peptide dilution were added per well and allowed to diffuse for at least about 30 minutes into the agar at […] (to allow complete diffusion). Then 10 mL of molten overlayer agarose (6% SDB, 1% agarose, 10 mM sodium phosphate buffer, pH 7.4 at about 45° C.) were added and the plates were incubated inverted at […] overnight. Plates were stained with a dilute Coomassie solution, inhibition zones were measured with calipers and net areas were calculated, then converted to pmole values by PROBIT analysis.

[7] = tested on: Candida krusei; experiment: Radial diffusion assay, Candida species (Table 2); assay type: cell-based
Method: as §3, §4, §5

[8] = tested on: Candida lusitaniae; experiment: Radial diffusion assay, Candida species (Table 2); assay type: cell-based
Method: as §3, §4, §5

[9] = tested on: Candida parapsilosis; experiment: Radial diffusion assay, Candida species (Table 2); assay type: cell-based
Method: as §3, §4, §5

[10] = tested on: Candida tropicalis; experiment: Radial diffusion assay, Candida species (Table 2); assay type: cell-based
Method: as §3, §4, §5

[11] = tested on: Candida albicans SLU-1 strain; experiment: Serum stability, anti-fungal activity after serum incubation by radial diffusion bioassay; assay type: in vitro ADME, rat or human serum
Method: (§6) For these serum stability experiments, peptides were prepared by solid phase peptide sythesis and purified to 94% or greater purity as described in Example 1. Blood was collected from metaphane anesthesized rats by aortic bleed into Vacutainer™ tubes and allowed to clot at room temperature for approximately 30 minutes, then centrifuged at 3000 rpm (about 1000×g) for 10 minutes at room temperature and the serum aspirated. In addition, frozen human serum (North American Biologics, Inc., Miami, Fla., cat. no. 2140, lot no. 94115) was thawed at room temperature and filtered through a 0.45 μm membrane before use.
(§7) A 1 mg/mL solution of an exemplary XMP peptide to be tested was added to an equal volume of either rat or human serum described above and maintained at 37° C. At 0, 1, 2, and 4 hours, 100 μL were removed and processed by solid phase extraction for HPLC analysis as follows. Serum samples were prepared for HPLC using C-18 Sep-Pak cartridges (1 mL cartridge with 100 mg of sorbent, Waters Corp., Milford, Mass.). One hundred μL of serum sample were added to an equal volume of 1% TFA and mixed for 30 seconds on a Vortex mixer. The sample was then applied to a C-18 Sep-Pak cartridge that had been conditioned by washing with 1 mL of methanol followed by 1 mL Milli-Q water. Weakly reed components were eluted by washing with 1 mL of 0. 1% TFA. The bound peptide was eluted with two volumes of 250 μL 80% acetonitrile/0.065% TFA.
(§8) The peptides identified and purified after serum incubation as described above were subjected to N-terminal peptide sequencing performed on an Applied Biosystems Model 477A/120A sequencer and to electrospray ionization mass spectrometry (ESI/MS) performed using a VG Biotech Bio-Q Mass Spectrometer. In addition, the peptides identified and purified after serum incubation as described above were also tested for their anti-fungal activity in a radial diffusion bioassay with Candida albicans SLU-1 strain as described in Example 2.

[12] = as above; assay type: in vitro ADME, rat or human serum; details: Activity in Serum t ½ (hr.)
Method: as §6, §7, §8

C[C@@H]1[C@H](O)[C@@H](C)/C=C/C=C/CC/C=C/C=C/C=C/C=C/C(O[C@H]2O[C@H](C)[C@@H](O)[C@H](N)[C@@H]2O)CC2O[C@](O)(CC(O)C(O)CCC(O)CC(O)CC(O)CC(=O)O[C@H]1C)CC(O)C2C(=O)O (some centres unmarked) [nystatin, reference compound]
pmol for a 30 mm^2 zone of inhibition against SLU-1 [1]: 98 pmol
pmol for a 30 mm^2 zone of inhibition against SLU-2G [2]: > 1,215 pmol

H-KSKVKFLIQLFHKK-NH2 [XMP.138]
minimum inhibitory concentration (MIC), lowest concentration required to reduce the optical density at 590 nm to below 0.1 [3]: 3.13 µg/mL
C. albicans pmol/30 mm^2 zone [4]: 257 pmol/30 mm^2 zone

CC[C@H](C)[C@H](NC(=O)[C@H](CC(C)C)NC(=O)[C@H](Cc1c[nH]c2ccccc12)NC(=O)CNC(=O)[C@@H](NC(=O)[C@H](CCCCN)NC(=O)[C@H](CO)NC(=O)[C@@H](N)CCCCN)C(C)C)C(=O)N[C@@H](CCC(N)=O)C(=O)N[C@@H](Cc1cccc2ccccc12)C(=O)N[C@@H](Cc1ccccc1)C(=O)N[C@@H](Cc1c[nH]cn1)C(=O)N[C@@H](CCCCN)C(=O)N[C@@H](CCCCN)C(N)=O [XMP.143] (H-KSKVGWLIQ[1Nal]FHKK-NH2)
minimum inhibitory concentration (MIC), lowest concentration required to reduce the optical density at 590 nm to below 0.1 [3]: 25.0 µg/mL (≈ 13.9 µM)
C. albicans pmol/30 mm^2 zone [4]: >2839 pmol/30 mm^2 zone

H-HHWLIQLHH-NH2 [XMP.337]
C. albicans pmol/30 mm^2 zone [4]: b (No detectable activity up to 5 μg/well)
C. albicans pmol/30 mm^2 zone ([4]; listed as XMP.337P′): >3,350 pmol/30 mm^2 zone
Anti-fungal activity: pmol/30 mm^2 zone, Candida albicans [5]: b (No detectable activity up to 5 μg/well)
Anti-fungal activity: pmol/30 mm^2 zone, Candida glabrata [6]: b (No detectable activity up to 5 μg/well)
Anti-fungal activity: pmol/30 mm^2 zone, Candida krusei [7]: 5,339 pmol/30 mm^2 zone
Anti-fungal activity: pmol/30 mm^2 zone, Candida lusitaniae [8]: 6,928 pmol/30 mm^2 zone
Anti-fungal activity: pmol/30 mm^2 zone, Candida parapsilosis [9]: b (No detectable activity up to 5 μg/well)
Anti-fungal activity: pmol/30 mm^2 zone, Candida tropicalis [10]: b (No detectable activity up to 5 μg/well)
Activity in Serum t ½ (hr.) [11]: inactive

H-KSKVGYLIQLFHKK-NH2 [XMP.139]
minimum inhibitory concentration (MIC), lowest concentration required to reduce the optical density at 590 nm to below 0.1 [3]: 6.25 µg/mL
C. albicans pmol/30 mm^2 zone [4]: 323 pmol/30 mm^2 zone
half-life at 0.5 mg/mL [12]: 10.6 h

H-KSKVGWLIQWFHKK-NH2 [XMP.142]
minimum inhibitory concentration (MIC), lowest concentration required to reduce the optical density at 590 nm to below 0.1 [3]: 12.5 µg/mL
C. albicans pmol/30 mm^2 zone [4]: 1244 pmol/30 mm^2 zone
